“Also recorded” adds a separate entry of the source. Structures can show the parent of a compound that is named as a salt. Where two headings read alike, the source gives them in different places.
Key:
[1] = cited from earlier work; for DILI Cat (DILI category): human, in vivo; for DILI Sev (DILI severity score from the LTKB of the FDA): negative number: withdrawn from the market, higher positive numbers, greater DILI concern
[2] = test system: iMPCCs (iHep micropatterned co-cultures); settings: human
iMPCCs [3] = test: 8-day drug toxicity study in iMPCCs (albumin and urea); settings: 8 days, multiple doses
[4] = test system: iCCs (confluent monolayer cultures of iHeps); settings: human; for Toxicity call in iCCs: 6 days
[5] = test system: primary hepatocyte sandwich culture; settings: human, cited from earlier work
[6] = test system: primary hepatocytes (HUM4011, Triangle Research Labs); settings: human
iMPCCs [7] = test: Drug-drug interaction: acetaminophen with BSO in iMPCCs; format: cell-based, human; settings: APAP 25·Cmax and 50·Cmax, BSO 200 μM
[8] = total human plasma concentration; cited from earlier work
[9] = test system: primary human hepatocytes in MPCCs; settings: cited from earlier work
CYP1A2 = CYP1A2 induction in iMPCCs (7-ethoxyresorufin O-dealkylation); format: cell-based, human
CYP2C9 and CYP3A4 [10] = settings: human
CYP2C9 and CYP3A4 [11] = test: Drug-mediated CYP enzyme induction in iCCs; settings: rifampicin 25 μM, phenobarbital 1 mM, 4 days
[12] = test system: iMPCCs (iHep micropatterned co-cultures); test: Drug toxicity screening in iMPCCs (albumin, ATP, urea; binary decision and TC50); settings: interpolated concentration at which activity decreases by 50% of DMSO-only controls
Throughout, for DILI Cat (DILI category): key: P1: DILI type 1, dose dependent (toxic); P2: DILI type 2, idiosyncratic (toxic); N1: not known to cause liver injury (nontoxic); N2: sporadic cases (<10) of liver injury reported but generally considered safe drug to use by doctors (nontoxic); O1: hepatotoxic in animals untested in humans (toxic); O2: elevated liver enzymes observed in humans but does not lead to frank liver toxicity (nontoxic).

## CC(C(=O)O)c1ccc(-c2ccccc2)c(F)c1 (centres unmarked) [Flurbiprofen]
[1]
  DILI Cat (DILI category): P2
[2]; 6 days
  Comparison of urea TC50 values, iHeps vs primary hepatocytes: higher TC50 in iHeps

## CNCCc1ccccn1.Cl.Cl [Betahistine 2HCl]
[1]
  DILI Cat (DILI category): P2

## CCCCCCCCCCCCCCCC(=O)OC[C@@H](NC(=O)C(Cl)Cl)[C@H](O)c1ccc([N+](=O)[O-])cc1 [Chloramphenicol palmitate]
[1]
  DILI Cat (DILI category): P2

## COc1ccc2c(c1)[C@]13CCCC[C@@H]1[C@H](C2)N(C)CC3 [Dextromethorphan HBr]
iMPCCs [3]
  Albumin and urea production after exposure: minimally affected
[4]
  Model predictions ICC (binary decision of toxicity): −
[5]
  Model predictions Sand (binary decision in sandwich cultures): −

## CCN(CC)CCOc1ccc(C(=C(Cl)c2ccccc2)c2ccccc2)cc1 [Clomiphene citrate]
[1]
  DILI Cat (DILI category): P2

## Nc1ccc(S(=O)(=O)c2ccc(N)cc2)cc1 [Dapsone]
[6]
  Toxicity call in another donor of primary hepatocytes: false negative
[1]
  DILI Cat (DILI category): P1

## C=C[C@H]1C[N@@]2CC[C@H]1C[C@H]2[C@H](O)c1ccnc2ccc(OC)cc12 [Quinine]
[1]
  DILI Cat (DILI category): P2
[2]; 6 days
  TC50 in iMPCCs, ATP: 182.2 µM

## CC(=O)Nc1ccc(O)cc1 [Acetaminophen]
iMPCCs [7]
  Toxicity of APAP when combined with BSO: substantial increase in toxicity
[1]
  DILI Cat (DILI category): P2

## CN1C(C(=O)Nc2ccccn2)=C(O)c2ccccc2S1(=O)=O [Piroxicam]
[1]
  DILI Cat (DILI category): P2
[2]; 6 days
  Toxicity call in iMPCCs / iHeps: toxic

## CNCCC(Oc1ccc(C(F)(F)F)cc1)c1ccccc1 (centres unmarked) [Fluoxetine]
[8]
  Cmax: 49 nM
[1]
  DILI Cat (DILI category): N2
  DILI Sev (DILI severity score from the LTKB of the FDA): 3

## CC(=O)Nc1nnc(S(N)(=O)=O)s1 [Acetazolamide]
[6]
  Toxicity call in another donor of primary hepatocytes: false negative

## CNCCC=C1c2ccccc2CCc2ccccc21 [Nortriptyline HCl]
[1]
  DILI Cat (DILI category): P2

## C[C@]12CC[C@@H]3c4ccc(O)cc4CC[C@H]3[C@@H]1CCC2=O [Estrone]
[1]
  DILI Cat (DILI category): P2

## Cc1ccc(C(=O)c2cc(O)c(O)c([N+](=O)[O-])c2)cc1 [tolcapone]
[2]
  Albumin secretions, time- and dose-dependent toxicity: time- and dose-dependent toxicities

## CN(CCOc1ccc(CC2SC(=O)NC2=O)cc1)c1ccccn1 (centres unmarked) [Rosiglitazone]
[1]
  DILI Cat (DILI category): N2

## O=C(O)Cc1ccccc1Nc1c(Cl)cccc1Cl [Diclofenac]
[1]
  DILI Cat (DILI category): P2
  DILI Sev (DILI severity score from the LTKB of the FDA): 7
[9]
  TC50 in MPCCs, Urea: 208.2 µM

## C#CC1(O)CC[C@H]2[C@@H]3CCC4=CC(=O)CC[C@@H]4[C@H]3CC[C@@]21CC (mixture of isomers) [Norgestrel]
[1]
  DILI Cat (DILI category): P2

## CN(C)CCCN1c2ccccc2CCc2ccccc21 [Imipramine HCl]
[1]
  DILI Cat (DILI category): P2

## NC(=O)NO [Hydroxyurea]
[2]; 6 days
  TC50 in iMPCCs, ATP: 49358.3 µM

## CCN(CC)C(=O)/C(C#N)=C/c1cc(O)c(O)c([N+](=O)[O-])c1 [entacapone]
[2]
  Albumin secretions, time- and dose-dependent toxicity: time- and dose-dependent toxicities

## Cc1c(C)c2c(c(C)c1O)CCC(C)(COc1ccc(CC3SC(=O)NC3=O)cc1)O2 (centres unmarked) [Troglitazone]
[1]
  DILI Cat (DILI category): P1

## CCc1oc2ccccc2c1C(=O)c1cc(Br)c(O)c(Br)c1 [Benzbromarone]
[1]
  DILI Cat (DILI category): P1

## O=C(O)c1cn(C2CC2)c2cc(N3CCNCC3)c(F)cc2c1=O [Ciprofloxacin HCl]
[2]; 6 days
  TC50 in iMPCCs, ATP: 804.2 µM

## Cc1cccc(Nc2ccccc2C(=O)O)c1C [Mefenamic acid]
[1]
  DILI Cat (DILI category): P2
[2]; 6 days
  TC50 in iMPCCs, ATP: 2551.9 µM
  TC50 in iMPCCs, Urea: 572.2 µM

## CC(=O)CC(c1ccccc1)c1c(O)c2ccccc2oc1=O (centres unmarked) [Warfarin]
[4]
  Model predictions ICC (binary decision of toxicity): −
[5]
  Model predictions Sand (binary decision in sandwich cultures): −

## O=P1(N(CCCl)CCCl)NCCCO1 (centres unmarked) [Cyclophosphamide]
[5]; primary hepatocyte sandwich culture
  Model predictions Sand (binary decision in sandwich cultures): −

## C[C@H](CS)C(=O)N1CCC[C@H]1C(=O)O [Captopril]
[1]
  DILI Cat (DILI category): P2
  DILI Sev (DILI severity score from the LTKB of the FDA): 7

## O=C1CC2(CCCC2)CC(=O)N1CCCCN1CCN(c2ncccn2)CC1 [Buspirone]
[1]
  DILI Cat (DILI category): N1

## C[C@@H]1C[C@H]2[C@@H]3CCC4=CC(=O)C=C[C@]4(C)[C@@]3(F)[C@@H](O)C[C@]2(C)[C@@]1(O)C(=O)CO [Dexamethasone]
[1]
  DILI Cat (DILI category): N1
[2]; 6 days
  Model predictions iMPCC (binary decision of toxicity): −

## CC(=O)[C@H]1CC[C@H]2[C@@H]3CCC4=CC(=O)CC[C@]4(C)[C@H]3CC[C@]12C [Progesterone]
[1]
  DILI Cat (DILI category): P2

## CC(=O)Oc1ccccc1C(=O)O [Aspirin]
[1]
  DILI Cat (DILI category): O2
[2]; 6 days
  Model predictions iMPCC (binary decision of toxicity): −

## C#C[C@]1(O)CC[C@H]2[C@@H]3CCC4=Cc5oncc5C[C@]4(C)[C@H]3CC[C@@]21C [Danazol]
[1]
  DILI Cat (DILI category): P1
  DILI Sev (DILI severity score from the LTKB of the FDA): 8

## CC(=O)O[C@]1(C(C)=O)CC[C@H]2[C@@H]3C=C(Cl)C4=CC(=O)[C@@H]5C[C@@H]5[C@]4(C)[C@H]3CC[C@@]21C [Cyproterone acetate]
[4]
  Toxicity call in iCCs: non-toxic
[1]
  DILI Cat (DILI category): O1
[2]; 6 days
  Toxicity call in iMPCCs / iHeps: toxic

## CCOc1ccc(NC(C)=O)cc1 [Phenacetin]
[4]
  Toxicity call in iCCs: not identified as toxic

## COc1ccc2[nH]c([S+]([O-])Cc3ncc(C)c(OC)c3C)nc2c1 (centres unmarked) [omeprazole]
CYP1A2
  CYP1A2 fold induction in iMPCCs as % of values in PHH-MPCCs: ~70%

## NC(=O)c1cnccn1 [Pyrazinamide]
[4]
  Toxicity call in iCCs: non-toxic
[1]
  DILI Cat (DILI category): P2
[2]; 6 days
  Toxicity call in iMPCCs / iHeps: toxic

## CCC1(c2ccccc2)C(=O)NC(=O)NC1=O [phenobarbital]
CYP2C9 and CYP3A4 [10]
  Fold induction of CYP450 transcripts in iMPCCs relative to PHH-MPCCs: 60-130%
  Induction in CYP450 functions in iMPCCs relative to PHH-MPCCs: 44-79%
CYP2C9 and CYP3A4 [11]
  CYP induction response (functional activity) in iCCs: induced functional activity; also recorded: severely blunted
CYP450 (3A4, 2C9)
  Induction of CYP450 (3A4, 2C9) transcripts and functions in PHH-MPCCs: induction

## O=C(O)/C=C\C(=O)O [Maleic acid]
[6]
  Toxicity call in another donor of primary hepatocytes: borderline positive

## O=c1n(CCCN2CCN(c3cccc(Cl)c3)CC2)nc2ccccn12 [Trazodone HCl]
[1]
  DILI Cat (DILI category): P2
[2]; 6 days
  TC50 in iMPCCs, ATP: 351.5 µM

## NNC(=O)c1ccncc1 [Isoniazid]
[4]
  Toxicity call in iCCs: non-toxic
[1]
  DILI Cat (DILI category): P1
[2]; 6 days
  Toxicity call in iMPCCs / iHeps: toxic
[12]
  TC50 in iMPCCs, Albumin: 6.6811 mM

## CCCCC1C(=O)N(c2ccccc2)N(c2ccccc2)C1=O [Phenylbutazone]
[1]
  DILI Cat (DILI category): P2
[9]
  TC50 in MPCCs, ATP: 7.5867 mM

— US10717966B2, “Stem cell-derived hepatocytes in co-culture and uses thereof” (Colorado State University Research Foundation, priority 2014, dated 2020)
